Assay results published in ChEMBL document CHEMBL4507294, “Data for DCP probe MSD-CYP11B2” (2021).

Experiments:
[1] = biological target: Serine/threonine-protein kinase haspin (Homo sapiens) (UniProt Q8TF76); details: Compound concentration 1000.0 nM
[2] = biological target: Protein kinase C epsilon type (Homo sapiens) (UniProt Q02156); details: Compound concentration 1000.0 nM
[3] = biological target: Serine/threonine-protein kinase pim-1 (Homo sapiens) (UniProt P11309); details: Compound concentration 1000.0 nM
[4] = biological target: Mitogen-activated protein kinase kinase kinase 10 (Homo sapiens) (UniProt Q02779); details: Compound concentration 1000.0 nM
[5] = biological target: Dual specificity mitogen-activated protein kinase kinase 4 (Homo sapiens) (UniProt P45985); details: Compound concentration 1000.0 nM
[6] = biological target: Serine/threonine-protein kinase PAK 4 (Homo sapiens) (UniProt O96013); details: Compound concentration 1000.0 nM
[7] = biological target: Serine/threonine-protein kinase 25 (Homo sapiens) (UniProt O00506); details: Compound concentration 1000.0 nM
[8] = biological target: Tyrosine-protein kinase JAK1 (Homo sapiens) (UniProt P23458); details: Compound concentration 1000.0 nM
[9] = system: Receptor-type tyrosine-protein kinase FLT3 (Homo sapiens), P36888 [K663Q]; details: Compound concentration 1000.0 nM
[10] = biological target: STE20-like serine/threonine-protein kinase (Homo sapiens) (UniProt Q9H2G2); details: Compound concentration 1000.0 nM
[11] = biological target: Protein kinase C delta type (Homo sapiens) (UniProt Q05655); details: Compound concentration 1000.0 nM
[12] = biological target: Aurora kinase A (Homo sapiens) (UniProt O14965); details: Compound concentration 1000.0 nM
[13] = biological target: Fibroblast growth factor receptor 3 (Homo sapiens) (UniProt P22607); details: Compound concentration 1000.0 nM
[14] = biological target: Tyrosine-protein kinase CSK (Homo sapiens) (UniProt P41240); details: Compound concentration 1000.0 nM
[15] = biological target: Beta-3 adrenergic receptor (Homo sapiens) (UniProt P13945); details: Compound concentration 10.0 uM
[16] = biological target: 5-hydroxytryptamine receptor 7 (Homo sapiens) (UniProt P34969); details: Compound concentration 10.0 uM
[17] = biological target: Tyrosine-protein kinase JAK1 (Homo sapiens) (UniProt P23458); details: Compound concentration 1000.0 nM; remark: listed apart in the source
[18] = biological target: Receptor-type tyrosine-protein kinase FLT3 (Homo sapiens) (UniProt P36888); details: Compound concentration 1000.0 nM
[19] = biological target: Serine/threonine-protein kinase Nek9 (Homo sapiens) (UniProt Q8TD19); details: Compound concentration 1000.0 nM
[20] = biological target: Protein kinase C theta type (Homo sapiens) (UniProt Q04759); details: Compound concentration 1000.0 nM
[21] = biological target: Casein kinase I isoform epsilon (Homo sapiens) (UniProt P49674); details: Compound concentration 1000.0 nM
[22] = biological target: Interferon-induced, double-stranded RNA-activated protein kinase (Homo sapiens) (UniProt P19525); details: Compound concentration 1000.0 nM
[23] = biological target: Myosin-IIIa (Homo sapiens) (UniProt Q8NEV4); details: Compound concentration 1000.0 nM
[24] = biological target: Misshapen-like kinase 1 (Homo sapiens) (UniProt Q8N4C8); details: Compound concentration 1000.0 nM
[25] = biological target: TRAF2 and NCK-interacting protein kinase (Homo sapiens) (UniProt Q9UKE5); details: Compound concentration 1000.0 nM
[26] = biological target: Mitogen-activated protein kinase 11 (Homo sapiens) (UniProt Q15759); details: Compound concentration 1000.0 nM
[27] = biological target: Tyrosine-protein kinase ZAP-70 (Homo sapiens) (UniProt P43403); details: Compound concentration 1000.0 nM
[28] = biological target: Wee1-like protein kinase (Homo sapiens) (UniProt P30291); details: Compound concentration 1000.0 nM
[29] = biological target: Mitogen-activated protein kinase kinase kinase 12 (Homo sapiens) (UniProt Q12852); details: Compound concentration 1000.0 nM
[30] = biological target: MAP kinase-interacting serine/threonine-protein kinase 2 (Homo sapiens) (UniProt Q9HBH9); details: Compound concentration 1000.0 nM
[31] = system: ALK tyrosine kinase receptor (Homo sapiens), Q9UM73 [C1156Y]; details: Compound concentration 1000.0 nM
[32] = biological target: Inhibitor of nuclear factor kappa-B kinase subunit alpha (Homo sapiens) (UniProt O15111); details: Compound concentration 1000.0 nM
[33] = biological target: Serine/threonine-protein kinase 17A (Homo sapiens) (UniProt Q9UEE5); details: Compound concentration 1000.0 nM
[34] = biological target: Serine/threonine-protein kinase Sgk1 (Homo sapiens) (UniProt O00141); details: Compound concentration 1000.0 nM
[35] = biological target: Epidermal growth factor receptor (Homo sapiens) (UniProt P00533); details: Compound concentration 1000.0 nM
[36] = biological target: Cyclin-dependent kinase 3 (Homo sapiens) (UniProt Q00526); details: Compound concentration 1000.0 nM
[37] = biological target: 3-phosphoinositide-dependent protein kinase 1 (Homo sapiens) (UniProt O15530); details: Compound concentration 1000.0 nM
[38] = biological target: Ribosomal protein S6 kinase alpha-6 (Homo sapiens) (UniProt Q9UK32); details: Compound concentration 1000.0 nM
[39] = biological target: Inhibitor of nuclear factor kappa-B kinase subunit epsilon (Homo sapiens) (UniProt Q14164); details: Compound concentration 1000.0 nM
[40] = biological target: Ribosomal protein S6 kinase alpha-4 (Homo sapiens) (UniProt O75676); details: Compound concentration 1000.0 nM
[41] = biological target: Serine/threonine-protein kinase PAK 2 (Homo sapiens) (UniProt Q13177); details: Compound concentration 1000.0 nM
[42] = biological target: Receptor tyrosine-protein kinase erbB-3 (Homo sapiens) (UniProt P21860); details: Compound concentration 1000.0 nM
[43] = biological target: Serine/threonine-protein kinase BRSK1 (Homo sapiens) (UniProt Q8TDC3); details: Compound concentration 1000.0 nM
[44] = biological target: Ephrin type-B receptor 3 (Homo sapiens) (UniProt P54753); details: Compound concentration 1000.0 nM
[45] = biological target: Serine/threonine-protein kinase PAK 5 (Homo sapiens) (UniProt Q9P286); details: Compound concentration 1000.0 nM
[46] = biological target: Tyrosine-protein kinase Fyn (Homo sapiens) (UniProt P06241); details: Compound concentration 1000.0 nM

Sequence of Tyrosine-protein kinase JAK1 (Homo sapiens) (P23458 whole entry): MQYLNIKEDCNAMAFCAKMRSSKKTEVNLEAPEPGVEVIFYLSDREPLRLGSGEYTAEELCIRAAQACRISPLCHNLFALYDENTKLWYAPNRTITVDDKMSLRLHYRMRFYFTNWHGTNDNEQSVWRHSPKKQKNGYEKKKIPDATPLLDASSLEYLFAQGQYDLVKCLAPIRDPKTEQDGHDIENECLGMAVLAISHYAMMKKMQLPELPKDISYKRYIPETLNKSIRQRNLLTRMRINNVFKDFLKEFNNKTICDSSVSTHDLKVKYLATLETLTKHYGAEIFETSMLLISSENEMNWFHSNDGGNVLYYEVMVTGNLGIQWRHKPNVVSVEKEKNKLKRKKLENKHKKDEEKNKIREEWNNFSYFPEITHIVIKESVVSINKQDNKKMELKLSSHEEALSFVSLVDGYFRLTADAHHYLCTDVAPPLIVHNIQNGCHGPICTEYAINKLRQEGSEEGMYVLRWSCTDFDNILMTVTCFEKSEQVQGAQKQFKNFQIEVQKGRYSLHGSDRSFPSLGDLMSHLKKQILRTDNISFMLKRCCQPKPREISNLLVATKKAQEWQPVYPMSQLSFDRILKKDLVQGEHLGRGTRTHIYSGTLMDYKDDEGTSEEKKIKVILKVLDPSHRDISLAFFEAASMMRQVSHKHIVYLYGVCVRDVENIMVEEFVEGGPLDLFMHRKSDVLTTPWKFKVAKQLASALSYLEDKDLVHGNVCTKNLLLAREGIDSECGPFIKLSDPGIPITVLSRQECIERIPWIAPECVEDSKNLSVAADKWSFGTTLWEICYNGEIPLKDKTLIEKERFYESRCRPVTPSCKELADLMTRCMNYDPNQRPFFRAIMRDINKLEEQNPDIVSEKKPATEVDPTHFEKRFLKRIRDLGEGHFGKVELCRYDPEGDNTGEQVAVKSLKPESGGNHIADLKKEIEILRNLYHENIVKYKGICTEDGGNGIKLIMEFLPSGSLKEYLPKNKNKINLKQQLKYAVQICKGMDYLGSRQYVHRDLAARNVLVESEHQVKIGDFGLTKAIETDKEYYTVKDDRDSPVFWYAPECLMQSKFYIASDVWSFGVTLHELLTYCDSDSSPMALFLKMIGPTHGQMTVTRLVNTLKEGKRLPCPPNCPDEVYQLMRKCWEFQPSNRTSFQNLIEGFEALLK
Sequence of Myosin-IIIa (Homo sapiens) (Q8NEV4 whole entry): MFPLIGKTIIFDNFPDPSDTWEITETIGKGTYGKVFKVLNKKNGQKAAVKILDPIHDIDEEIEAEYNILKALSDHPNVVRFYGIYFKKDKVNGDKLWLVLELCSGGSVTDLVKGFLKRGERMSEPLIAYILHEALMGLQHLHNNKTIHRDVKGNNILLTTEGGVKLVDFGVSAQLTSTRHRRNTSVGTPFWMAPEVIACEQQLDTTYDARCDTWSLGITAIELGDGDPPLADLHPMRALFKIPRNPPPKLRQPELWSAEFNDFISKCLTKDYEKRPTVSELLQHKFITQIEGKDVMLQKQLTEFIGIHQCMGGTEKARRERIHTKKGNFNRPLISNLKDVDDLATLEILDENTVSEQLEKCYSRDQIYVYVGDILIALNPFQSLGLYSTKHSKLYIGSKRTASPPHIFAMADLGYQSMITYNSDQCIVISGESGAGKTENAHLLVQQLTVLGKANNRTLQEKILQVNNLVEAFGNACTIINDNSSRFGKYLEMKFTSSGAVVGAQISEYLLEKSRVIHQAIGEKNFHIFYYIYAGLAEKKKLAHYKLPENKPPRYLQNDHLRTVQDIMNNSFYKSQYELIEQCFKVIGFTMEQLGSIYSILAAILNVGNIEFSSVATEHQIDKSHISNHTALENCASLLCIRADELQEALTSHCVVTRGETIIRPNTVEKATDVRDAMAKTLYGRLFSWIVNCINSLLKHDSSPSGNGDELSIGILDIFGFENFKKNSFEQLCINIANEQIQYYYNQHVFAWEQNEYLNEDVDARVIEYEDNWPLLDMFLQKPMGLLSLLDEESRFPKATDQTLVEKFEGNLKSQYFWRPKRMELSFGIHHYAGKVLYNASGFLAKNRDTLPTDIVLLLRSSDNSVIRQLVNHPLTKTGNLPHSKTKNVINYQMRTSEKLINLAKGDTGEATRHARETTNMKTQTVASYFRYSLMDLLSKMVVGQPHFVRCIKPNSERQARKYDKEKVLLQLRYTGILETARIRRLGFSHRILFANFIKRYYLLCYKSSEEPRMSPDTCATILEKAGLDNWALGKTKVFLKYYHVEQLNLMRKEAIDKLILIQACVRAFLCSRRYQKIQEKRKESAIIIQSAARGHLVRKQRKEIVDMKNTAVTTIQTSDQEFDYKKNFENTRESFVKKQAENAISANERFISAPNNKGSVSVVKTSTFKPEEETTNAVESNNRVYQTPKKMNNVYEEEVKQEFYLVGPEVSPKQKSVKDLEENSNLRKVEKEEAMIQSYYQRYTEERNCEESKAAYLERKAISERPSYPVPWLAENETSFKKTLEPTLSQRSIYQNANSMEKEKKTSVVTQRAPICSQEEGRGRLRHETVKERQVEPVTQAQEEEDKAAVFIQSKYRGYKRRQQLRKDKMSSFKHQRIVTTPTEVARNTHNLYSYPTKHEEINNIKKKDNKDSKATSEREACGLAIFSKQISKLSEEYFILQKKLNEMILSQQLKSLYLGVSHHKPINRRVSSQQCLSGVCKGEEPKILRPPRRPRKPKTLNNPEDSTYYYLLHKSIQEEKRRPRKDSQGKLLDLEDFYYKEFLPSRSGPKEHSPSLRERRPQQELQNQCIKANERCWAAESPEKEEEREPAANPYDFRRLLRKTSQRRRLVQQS
Sequence of Serine/threonine-protein kinase 25 (Homo sapiens) (O00506 whole entry, looked up): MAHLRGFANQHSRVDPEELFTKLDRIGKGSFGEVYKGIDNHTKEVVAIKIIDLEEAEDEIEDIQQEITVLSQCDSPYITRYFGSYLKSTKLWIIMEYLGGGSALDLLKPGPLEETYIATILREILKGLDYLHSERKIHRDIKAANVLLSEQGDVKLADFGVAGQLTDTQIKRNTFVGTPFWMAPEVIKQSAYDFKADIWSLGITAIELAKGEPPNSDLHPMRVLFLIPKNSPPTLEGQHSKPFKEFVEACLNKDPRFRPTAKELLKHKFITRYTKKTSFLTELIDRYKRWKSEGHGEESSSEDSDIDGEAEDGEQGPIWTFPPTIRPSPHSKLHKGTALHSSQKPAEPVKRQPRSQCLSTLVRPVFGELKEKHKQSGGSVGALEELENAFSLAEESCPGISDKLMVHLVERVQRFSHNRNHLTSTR
Sequence of TRAF2 and NCK-interacting protein kinase (Homo sapiens) (Q9UKE5 whole entry, looked up): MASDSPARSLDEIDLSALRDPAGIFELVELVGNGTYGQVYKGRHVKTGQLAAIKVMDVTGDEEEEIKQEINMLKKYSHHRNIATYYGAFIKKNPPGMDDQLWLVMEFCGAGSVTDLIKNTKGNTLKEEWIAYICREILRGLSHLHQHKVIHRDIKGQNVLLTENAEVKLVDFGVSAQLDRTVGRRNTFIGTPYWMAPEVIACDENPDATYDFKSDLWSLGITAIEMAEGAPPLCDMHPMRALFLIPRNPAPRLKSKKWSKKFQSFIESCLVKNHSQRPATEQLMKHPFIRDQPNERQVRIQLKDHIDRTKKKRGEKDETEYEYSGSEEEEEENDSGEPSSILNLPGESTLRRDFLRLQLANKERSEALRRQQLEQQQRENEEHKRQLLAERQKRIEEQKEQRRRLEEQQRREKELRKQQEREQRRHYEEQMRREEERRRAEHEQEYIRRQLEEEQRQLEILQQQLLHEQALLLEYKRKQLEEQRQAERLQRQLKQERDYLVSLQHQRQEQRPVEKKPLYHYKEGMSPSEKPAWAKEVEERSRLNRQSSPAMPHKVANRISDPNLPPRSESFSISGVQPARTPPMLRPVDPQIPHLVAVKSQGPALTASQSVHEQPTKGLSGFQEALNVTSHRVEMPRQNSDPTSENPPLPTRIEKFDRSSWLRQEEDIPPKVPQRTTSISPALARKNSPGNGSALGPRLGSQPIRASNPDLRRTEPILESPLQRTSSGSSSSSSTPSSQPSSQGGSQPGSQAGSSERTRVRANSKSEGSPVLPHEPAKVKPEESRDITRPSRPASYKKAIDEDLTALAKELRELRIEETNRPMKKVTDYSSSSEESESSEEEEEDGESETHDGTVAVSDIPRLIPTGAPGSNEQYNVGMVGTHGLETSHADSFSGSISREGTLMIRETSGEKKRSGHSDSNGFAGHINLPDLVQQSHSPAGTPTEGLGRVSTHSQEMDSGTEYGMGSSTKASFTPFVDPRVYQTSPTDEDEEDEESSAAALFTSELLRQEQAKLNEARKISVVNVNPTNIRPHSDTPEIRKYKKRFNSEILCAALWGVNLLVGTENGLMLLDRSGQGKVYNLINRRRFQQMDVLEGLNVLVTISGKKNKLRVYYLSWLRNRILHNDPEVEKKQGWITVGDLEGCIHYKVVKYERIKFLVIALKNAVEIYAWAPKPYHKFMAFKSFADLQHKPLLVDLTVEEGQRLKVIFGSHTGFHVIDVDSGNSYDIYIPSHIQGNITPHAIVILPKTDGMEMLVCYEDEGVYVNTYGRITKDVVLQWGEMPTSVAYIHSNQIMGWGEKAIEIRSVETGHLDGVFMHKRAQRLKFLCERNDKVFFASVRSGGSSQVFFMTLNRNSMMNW
Sequence of Tyrosine-protein kinase CSK (Homo sapiens) (P41240 2-450 limits assumed): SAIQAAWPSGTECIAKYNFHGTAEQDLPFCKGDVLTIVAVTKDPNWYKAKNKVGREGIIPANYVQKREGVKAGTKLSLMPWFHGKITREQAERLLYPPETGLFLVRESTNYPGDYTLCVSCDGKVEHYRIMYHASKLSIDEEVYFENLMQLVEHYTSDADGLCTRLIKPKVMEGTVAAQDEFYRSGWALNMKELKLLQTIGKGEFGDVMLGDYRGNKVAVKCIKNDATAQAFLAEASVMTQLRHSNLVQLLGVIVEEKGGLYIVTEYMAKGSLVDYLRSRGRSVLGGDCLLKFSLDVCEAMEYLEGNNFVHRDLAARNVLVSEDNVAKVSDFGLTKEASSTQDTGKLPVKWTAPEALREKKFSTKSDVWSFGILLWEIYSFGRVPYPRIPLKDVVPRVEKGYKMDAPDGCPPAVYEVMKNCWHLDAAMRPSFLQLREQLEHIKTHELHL

FC(F)(F)c1ccc2c(c1)nc(-c1cccnc1)n2C1CC1 [MSD-CYP11B2-Negative-control]
inactive: residual activity [1] 96% | residual activity [2] 97% | residual activity [3] 94% | residual activity [4] 100% | residual activity [5] 100% | residual activity [6] 100% | residual activity [7] 99% | residual activity [8] 100% | residual activity [9] 100% | residual activity [10] 100% | residual activity [11] 100% | residual activity [12] 98% | residual activity [13] 100% | residual activity [14] 100% | inhibition [15] -1.88% | inhibition [16] 0.88% | residual activity [17] 85% | residual activity [18] 100% | residual activity [19] 100% | residual activity [20] 100% | residual activity [21] 100% | residual activity [22] 89% | residual activity [23] 100% | residual activity [24] 100% | residual activity [25] 100% | residual activity [26] 100% | residual activity [27] 100% | residual activity [28] 93% | residual activity [29] 100% | residual activity [30] 100% | residual activity [31] 100% | residual activity [32] 100% | residual activity [33] 100% | residual activity [34] 100% | residual activity [35] 86% | residual activity [36] 100% | residual activity [37] 94% | residual activity [38] 100% | residual activity [39] 100% | residual activity [40] 99% | residual activity [41] 100% | residual activity [42] 77% | residual activity [43] 100% | residual activity [44] 100% | residual activity [45] 100% | residual activity [46] 100%

CC(C)(O)c1cncc(-c2nc3ccc(F)cc3n2C2CC2)c1 [MSD-CYP11B2]
inactive: residual activity [1] 83% | residual activity [2] 100% | residual activity [3] 92% | residual activity [4] 100% | residual activity [5] 100% | residual activity [6] 100% | residual activity [7] 100% | residual activity [8] 100% | residual activity [9] 100% | residual activity [10] 100% | residual activity [11] 100% | residual activity [12] 94% | residual activity [13] 100% | residual activity [14] 100% | inhibition [15] 16.7% | inhibition [16] -2.18% | residual activity [17] 80% | residual activity [18] 100% | residual activity [19] 100% | residual activity [20] 100% | residual activity [21] 100% | residual activity [22] 91% | residual activity [23] 100% | residual activity [24] 100% | residual activity [25] 100% | residual activity [26] 100% | residual activity [27] 100% | residual activity [28] 72% | residual activity [29] 100% | residual activity [30] 100% | residual activity [31] 100% | residual activity [32] 100% | residual activity [33] 94% | residual activity [34] 100% | residual activity [35] 100% | residual activity [36] 100% | residual activity [37] 97% | residual activity [38] 100% | residual activity [39] 100% | residual activity [40] 91% | residual activity [41] 100% | residual activity [42] 80% | residual activity [43] 100% | residual activity [44] 100% | residual activity [45] 100% | residual activity [46] 100%
